Source: PMC11767582, “Synthesis and Biological Evaluation of New cis-Restricted Triazole Analogues of Combretastatin A-4” (Molecules, 2025)
Like-named read-outs stand apart in the source and are kept apart here.

How the values were obtained:
[1] = test system: human colon cancer cell line HT-29; assay: MTT cytotoxicity (growth inhibition) assay, HT-29; assay type: cell-based
Description: (§1) • Cell culture. Cell culture media were purchased from Gibco (Grand Island, NY, USA). Fetal bovine serum (FBS) was a product of Harlan-Seralab (Belton, UK). Supplements and other chemicals not listed in this section were obtained from Sigma Chemical Co. (St. Louis, MO, USA). Plastics for cell culture were supplied by Thermo Scientific BioLite. All tested compounds were dissolved in DMSO at a concentration of 20 mM and stored at –20 °C until use. HT-29, A-549, and HEK-293 cell lines were maintained in a Dulbecco’s modified Eagle’s medium (DMEM) containing glucose (1 g/L), glutamine (2 mM), penicillin (50 μg/mL), streptomycin (50 μg/mL), and amphotericin B (1.25 μg/mL), supplemented with 10% FBS. • Cytotoxicity assays. 5 × 10^3 cells per well were incubated in 96-well plates with serial dilutions of the tested compounds in a total volume of 100 μL of their growth media. 3-(4,5-dimethylthiazol-2-yl)-2,5-diphenyltetrazolium bromide (MTT; Sigma Chemical Co.) dye reduction assay in 96-well microplates was used. Then, 10 μL of MTT (5 mg/mL in phosphate-buffered saline, PBS) was added to each well after 2 days of incubation (37 °C, 5% CO2 in a humid atmosphere). The plate was incubated for a further 3 h (37 °C). After that, the supernatant was discarded and 100 μL of DMSO were added in order to dissolve formazan crystals. The absorbance was read at 550 nm by spectro-photometry. For all concentrations of compound, cell viability was expressed as the percentage of the ratio between the mean absorbance of treated cells and the mean absorbance of untreated cells. Three independent experiments were performed, and the IC50 values (i.e., concentration half inhibiting cell proliferation) were graphically determined using GraphPad Prism 9 software.

[2] = test system: human lung cancer cell line A-549; assay: MTT cytotoxicity (growth inhibition) assay, A-549; assay type: cell-based
Description: as §1

[3] = MTT cytotoxicity (growth inhibition) assay, HEK-293 (non-tumor); assay type: cell-based; conditions: human, HEK-293 embryonic kidney cells (non-tumor)
Description: as §1

HT-29 = test system: HT-29; parameters: method as in PMID 18396050, PMID 18681482, PMID 22137934, PMID 22304851, PMID 24222525; conditions: known triazole analogues of CA-4; ref [15],[16],[17],[18],[19],[20]; read-out: IC50 HT-29 (Figure 2); cited from earlier work
[4] = test system: K562 leukemia cancer cell line; parameters: method as in PMID 18396050; conditions: ref [15], cited from earlier work
[5] = test system: human colon cancer cell line HT-29; parameters: method as in PMID 32033084; conditions: reference compound; ref [30]; read-out: Cytotoxicity IC50 HT-29; cited from earlier work
[6] = test system: human lung cancer cell line A-549; parameters: method as in PMID 32033084; conditions: reference compound; ref [30]; read-out: Cytotoxicity IC50 A-549; cited from earlier work
[7] = test system: human embryonic kidney cell line HEK-293; parameters: method as in PMID 32033084; conditions: reference compound; ref [30]; read-out: Cytotoxicity IC50 HEK-293; cited from earlier work
[8] = HT-29, 48 h, read-out: Cytotoxicity IC50 HT-29
[9] = A549, 48 h, read-out: Cytotoxicity IC50 A-549
[10] = known triazole analogues of CA-4, read-out: IC50 K562 (Figure 2)

Which IC50 [1, 8] does the source give for COc1cc(-n2nncc2-c2ccccc2)cc(OC)c1OC [3a, 5-phenyl-1-(3,4,5-trimethoxyphenyl)-1H-1,2,3-triazole] here?
The IC50 was > 100 µM.

What about the IC50 [2, 9] of the same compound?
Its IC50 is > 200 µM.

And the IC50 at 48 h [3]?
The IC50 at 48 h was > 200 µM.

For COc1cc(-n2nncc2-c2ccc(C)cc2)cc(OC)c1OC [3d, 5-(p-tolyl)-1-(3,4,5-trimethoxyphenyl)-1H-1,2,3-triazole], which IC50 [1, 8] is on record?
Its IC50 is > 100 µM.

What about the IC50 [2, 9] of the same compound?
The IC50 was > 200 µM.

What about the IC50 at 48 h [3] of the same compound?
Its IC50 at 48 h is > 200 µM.

Which IC50 [1, 8] does the source give for COc1ccc(-c2cnnn2-c2cc(OC)c(OC)c(OC)c2)c(Br)c1 [3k, 5-(2-bromo-4-methoxyphenyl)-1-(3,4,5-trimethoxyphenyl)-1H-1,2,3-triazole] here?
Its IC50 is 56 ± 4 µM.

And the IC50 [2, 9]?
Its IC50 is 33 ± 2 µM.

And the IC50 at 48 h [3]?
The IC50 at 48 h was > 100 µM.

Which IC50 [1, 8] does the source give for COc1cc(-n2nncc2-c2ccc(Cl)cc2)cc(OC)c1OC [3g, 5-(4-chlorophenyl)-1-(3,4,5-trimethoxyphenyl)-1H-1,2,3-triazole] here?
The IC50 was > 100 µM.

And the IC50 [2, 9]?
Its IC50 is > 100 µM.

And the IC50 at 48 h [3]?
The IC50 at 48 h was > 200 µM.

For COc1cc(-n2nncc2-c2ccc(OC)c([N+](=O)[O-])c2[N+](=O)[O-])cc(OC)c1OC [R^1 = R^2 = NO2], which IC50 (HT-29) is on record?
The IC50 was 12 µM.

With COc1ccc(-c2cnnn2-c2cc(OC)c(OC)c(OC)c2)cc1Cl [3n, 5-(3-chloro-4-methoxyphenyl)-1-(3,4,5-trimethoxyphenyl)-1H-1,2,3-triazole] as the compound, how does the IC50 [1, 8] read?
The IC50 was 0.021 ± 0.006 µM.

And the IC50 [2, 9]?
The IC50 was 0.0032 ± 0.0009 µM.

And the IC50 ([2]; A549, 48 h incubation, rounded value, read-out: IC50 A-549)?
Its IC50 is 0.003 µM.

And the IC50 at 48 h [3]?
Its IC50 at 48 h is 0.025 ± 0.008 µM.

Which IC50 [1, 8] does the source give for COc1cc(-n2nncc2-c2ccc(F)cc2)cc(OC)c1OC [3f, 5-(4-fluorophenyl)-1-(3,4,5-trimethoxyphenyl)-1H-1,2,3-triazole] here?
The IC50 was > 200 µM.

And the IC50 [2, 9]?
The IC50 was > 200 µM.

What about the IC50 at 48 h [3] of the same compound?
Its IC50 at 48 h is > 200 µM.

Which IC50 [4, 10] does the source give for COc1ccc(-c2cnnn2-c2cc(OC)c(OC)c(OC)c2)cc1Br [R^1 = H, R^2 = Br] here?
Its IC50 is 0.057 µM.

Which IC50 [1, 8] does the source give for CCOc1ccc(-c2cnnn2-c2cc(OC)c(OC)c(OC)c2)cc1Br [3m, 5-(3-bromo-4-ethoxyphenyl)-1-(3,4,5-trimethoxyphenyl)-1H-1,2,3-triazole] here?
The IC50 was 20 ± 5 µM.

And the IC50 [2, 9]?
Its IC50 is 59 ± 1 µM.

And the IC50 at 48 h [3]?
The IC50 at 48 h was > 200 µM.

What does the source list for COc1cc(-n2nncc2-c2ccccc2[N+](=O)[O-])cc(OC)c1OC [3c, 5-(2-nitrophenyl)-1-(3,4,5-trimethoxyphenyl)-1H-1,2,3-triazole]?
IC50 [1, 8]: > 100 µM; IC50 [2, 9]: > 200 µM; IC50 at 48 h [3]: > 200 µM

For COc1ccc(-c2cnnn2-c2cc(OC)c(OC)c(OC)c2)cc1[N+](=O)[O-] [R^1 = H, R^2 = NO2], which IC50 [4, 10] is on record?
The IC50 was 0.46 µM.

Which IC50 [1, 8] does the source give for COc1cc(-n2nncc2-c2ccc(C(F)(F)F)cc2)cc(OC)c1OC [3e, 5-(4-(trifluoromethyl)phenyl)-1-(3,4,5-trimethoxyphenyl)-1H-1,2,3-triazole] here?
The IC50 was 54 ± 3 µM.

And the IC50 [2, 9]?
The IC50 was > 100 µM.

And the IC50 at 48 h [3]?
Its IC50 at 48 h is > 200 µM.

With CCOc1ccc(-c2cnnn2-c2cc(OC)c(OC)c(OC)c2)cc1 [3j, 5-(4-ethoxyphenyl)-1-(3,4,5-trimethoxyphenyl)-1H-1,2,3-triazole] as the compound, how does the IC50 [1, 8] read?
The IC50 was 0.0021 ± 0.0009 µM.

What about the IC50 ([1]; HT-29, 48 h incubation, rounded value, read-out: IC50 HT-29) of the same compound?
Its IC50 is 0.002 µM.

What about the IC50 [2, 9] of the same compound?
Its IC50 is 5.8 ± 0.8 µM.

What about the IC50 at 48 h [3] of the same compound?
The IC50 at 48 h was 19 ± 4 µM.

Which results are given for COc1ccc(-c2cnnn2-c2cc(OC)c(OC)c(OC)c2)cc1OC [3o, 5-(3,4-dimethoxyphenyl)-1-(3,4,5-trimethoxyphenyl)-1H-1,2,3-triazoletriazole]?
IC50 [1, 8]: > 100 µM; IC50 [2, 9]: > 200 µM; IC50 at 48 h [3]: > 200 µM

With COc1ccc(-c2cnnn2-c2cc(OC)c(OC)c(OC)c2)cc1N [R^1 = H, R^2 = NH2] as the compound, how does the IC50 [4, 10] read?
The IC50 was 0.011 µM.

Which results are given for COc1cc(-n2nncc2-c2ccccc2Br)cc(OC)c1OC [3b, 5-(2-bromophenyl)-1-(3,4,5-trimethoxyphenyl)-1H-1,2,3-triazole]?
IC50 [1, 8]: > 100 µM; IC50 [2, 9]: > 100 µM; IC50 at 48 h [3]: > 200 µM

For COc1cc(-n2nncc2-c2ccc(Br)cc2)cc(OC)c1OC [3h, 5-(4-bromophenyl)-1-(3,4,5-trimethoxyphenyl)-1H-1,2,3-triazole], which IC50 [1, 8] is on record?
Its IC50 is > 100 µM.

What about the IC50 [2, 9] of the same compound?
Its IC50 is > 100 µM.

What about the IC50 at 48 h [3] of the same compound?
Its IC50 at 48 h is > 200 µM.

Which IC50 [5] does the source give for COc1ccc(/C=C\c2cc(OC)c(OC)c(OC)c2)cc1O [CA-4, combretastatin A-4] here?
The IC50 was 4.2 ± 0.5 µM.

And the IC50 [6]?
The IC50 was 0.428 ± 0.004 µM.

And the IC50 [7]?
Its IC50 is 25 ± 3 µM.

What does the source list for COc1ccc(Br)c(-c2cnnn2-c2cc(OC)c(OC)c(OC)c2)c1 [3l, 5-(2-bromo-5-methoxyphenyl)-1-(3,4,5-trimethoxyphenyl)-1H-1,2,3-triazole]?
IC50 [1, 8]: > 100 µM; IC50 [2, 9]: > 200 µM; IC50 at 48 h [3]: > 200 µM

With COc1cc(-n2nncc2-c2ccc(O)c(O)c2)cc(OC)c1OC [3q, 4-(1-(3,4,5-trimethoxyphenyl)-1H-1,2,3-triazol-5-yl)benzene-1,2-diol] as the compound, how does the IC50 [1, 8] read?
The IC50 was > 200 µM.

What about the IC50 [2, 9] of the same compound?
Its IC50 is > 200 µM.

And the IC50 at 48 h [3]?
Its IC50 at 48 h is > 200 µM.

Which results are given for COc1ccc(-c2cnnn2-c2cc(OC)c(OC)c(OC)c2)cc1 [3i, 5-(4-methoxyphenyl)-1-(3,4,5-trimethoxyphenyl)-1H-1,2,3-triazole]?
IC50 [1, 8]: 0.02 ± 0.009 µM; IC50 [2, 9]: 0.022 ± 0.007 µM; IC50 at 48 h [3]: 35 ± 9 µM; IC50 ([4]; previously described, read-out: IC50 K562 leukemia cancer cell line): 0.027 µM

With COc1ccc(-c2cnnn2-c2cc(OC)c(OC)c(OC)c2)c(F)c1F [R^1 = R^2 = F] as the compound, how does the IC50 (HT-29) read?
Its IC50 is 1.9 µM.

Which IC50 (HT-29) does the source give for COc1ccc(-c2cnnn2-c2cc(OC)c(OC)c(OC)c2)c(N)c1N [R^1 = R^2 = NH2] here?
The IC50 was 17.2 µM.

For COc1cc(-n2nncc2-c2ccc(O)c(Br)c2)cc(OC)c1OC [3p, 2-bromo-4-(1-(3,4,5-trimethoxyphenyl)-1H-1,2,3-triazol-5-yl)phenol], which IC50 [1, 8] is on record?
Its IC50 is > 200 µM.

And the IC50 [2, 9]?
The IC50 was > 200 µM.

And the IC50 at 48 h [3]?
Its IC50 at 48 h is > 200 µM.
